Tests used:
[1] = xn = mol fraction of the nth substance listed; conditions: 101 kPa, Liquid; for viscosity: Capillary tube (Ostwald / Ubbelohde) method; for mass density: Vibrating tube method
[2] = refractive index (Na D-line) (dimensionless); xn = mol fraction of the nth substance listed; conditions: 101 kPa, Liquid, Standard Abbe refractometry

CC1CCC(C)C(C)C1 (stereo not given) [1,2,4-trimethylcyclohexane] + C1C[C@@H]2[C@H]3CC[C@H](C3)[C@@H]2C1
Conditions	mass density, [1] [kg/m3]	refractive index, [2]	viscosity, [1] [mPa·s]
293.15 K, x2 = 0	790.8	1.4331	0.886
293.15 K, x2 = 0.1	804.62	1.4381	0.986
293.15 K, x2 = 0.1996	818.49	1.4436	1.101
293.15 K, x2 = 0.3002	832.73	1.449	1.23
293.15 K, x2 = 0.4009	847.13	1.4545	1.381
293.15 K, x2 = 0.5001	861.44	1.4597	1.562
293.15 K, x2 = 0.5992	875.89	1.4651	1.759
293.15 K, x2 = 0.6998	890.7	1.4709	2.008
293.15 K, x2 = 0.7997	905.51	1.476	2.277
293.15 K, x2 = 0.9001	920.61	1.4818	2.609
298.15 K, x2 = 0	786.92	–	0.827
298.15 K, x2 = 0.1	800.71	–	0.917
298.15 K, x2 = 0.1996	814.61	–	1.021
298.15 K, x2 = 0.3002	828.84	–	1.137
298.15 K, x2 = 0.4009	843.21	–	1.273
298.15 K, x2 = 0.5001	857.51	–	1.436
298.15 K, x2 = 0.5992	871.98	–	1.613
298.15 K, x2 = 0.6998	886.77	–	1.837
298.15 K, x2 = 0.7997	901.61	–	2.076
298.15 K, x2 = 0.9001	916.71	–	2.371
303.15 K, x2 = 0	783.03	1.4285	0.774
303.15 K, x2 = 0.1	796.8	1.4339	0.856
303.15 K, x2 = 0.1996	810.7	1.4392	0.95
303.15 K, x2 = 0.3002	824.93	1.4442	1.056
303.15 K, x2 = 0.4009	839.3	1.4499	1.179
303.15 K, x2 = 0.5001	853.59	1.4554	1.326
303.15 K, x2 = 0.5992	868.06	1.4608	1.486
303.15 K, x2 = 0.6998	882.85	1.4661	1.687
303.15 K, x2 = 0.7997	897.7	1.4718	1.901
303.15 K, x2 = 0.9001	912.81	1.4775	2.165
308.15 K, x2 = 0	779.13	–	0.727
308.15 K, x2 = 0.1	792.9	–	0.802
308.15 K, x2 = 0.1996	806.79	–	0.888
308.15 K, x2 = 0.3002	821.01	–	0.984
308.15 K, x2 = 0.4009	835.38	–	1.096
308.15 K, x2 = 0.5001	849.67	–	1.23
308.15 K, x2 = 0.5992	864.13	–	1.374
308.15 K, x2 = 0.6998	878.93	–	1.556
308.15 K, x2 = 0.7997	893.78	–	1.749
308.15 K, x2 = 0.9001	908.89	–	1.985
313.15 K, x2 = 0	775.23	1.424	0.686
313.15 K, x2 = 0.1	788.98	1.429	0.753
313.15 K, x2 = 0.1996	802.87	1.4346	0.832
313.15 K, x2 = 0.3002	817.09	1.44	0.92
313.15 K, x2 = 0.4009	831.45	1.4452	1.022
313.15 K, x2 = 0.5001	845.74	1.4508	1.144
313.15 K, x2 = 0.5992	860.2	1.4561	1.275
313.15 K, x2 = 0.6998	875.01	1.4618	1.44
313.15 K, x2 = 0.7997	889.85	1.4676	1.615
313.15 K, x2 = 0.9001	904.97	1.4731	1.828
318.15 K, x2 = 0	771.32	–	0.648
318.15 K, x2 = 0.1	785.06	–	0.71
318.15 K, x2 = 0.1996	798.94	–	0.782
318.15 K, x2 = 0.3002	813.16	–	0.862
318.15 K, x2 = 0.4009	827.52	–	0.956
318.15 K, x2 = 0.5001	841.8	–	1.068
318.15 K, x2 = 0.5992	856.27	–	1.187
318.15 K, x2 = 0.6998	871.07	–	1.337
318.15 K, x2 = 0.7997	885.92	–	1.496
318.15 K, x2 = 0.9001	901.04	–	1.688
